The text below walks through data of paper PMC5677544 (Analytical chemistry, 2017).

Like-named read-outs stand apart in the source and are kept apart here.

Holding throughout (assay): ESI-MS titration
Common to all, as to assay type: binding

Assay [1] concerns the target T1, β-2-microglobulin (β2m) (Homo sapiens, UniProt P61769).
Assay [2] deals with T1, β-2-microglobulin (β2m). This is another data set of the same source.
Assay [3] addresses T1, β-2-microglobulin (β2m). This is another data set of the same source.

T1 sequence (P61769 21-119): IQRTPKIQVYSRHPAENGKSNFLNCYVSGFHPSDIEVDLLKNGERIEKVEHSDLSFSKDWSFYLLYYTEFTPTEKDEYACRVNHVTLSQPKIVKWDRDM

Take `C[C@H]1c2cccc(O)c2C(=O)C2=C(O)[C@]3(O)C(=O)C(C(N)=O)=C(O)[C@@H](N(C)C)[C@@H]3[C@@H](O)[C@@H]21` [doxycycline]: in assay [1], the Kd amounted to 200 ± 20 µM.

`CO[C@H]1/C=C/O[C@@]2(C)Oc3c(C)c(O)c4c(O)c(cc(O)c4c3C2=O)NC(=O)/C(C)=C\C=C\[C@H](C)[C@H](O)[C@@H](C)[C@@H](O)[C@@H](C)[C@H](OC(C)=O)[C@@H]1C` [rifamycin SV]: binding in assay [2] was characterised by a dissociation constant (Kd) of 250 ± 25 µM.

For the compound `Cc1ccc(C(=O)Nc2ccc(S(=O)(=O)O)c3cc(S(=O)(=O)O)cc(S(=O)(=O)O)c23)cc1NC(=O)c1cccc(NC(=O)Nc2cccc(C(=O)Nc3cc(C(=O)Nc4ccc(S(=O)(=O)O)c5cc(S(=O)(=O)O)cc(S(=O)(=O)O)c45)ccc3C)c2)c1` [suramin], binding in assay [3] was characterised by a dissociation constant (Kd) of 40 ± 2 µM.
